The values that follow come from patent US20250009791A1, “METHOD FOR PREVENTION AND REDUCTION OF SKIN STASIS WITH COMPOSITIONS AND MATERIALS COMPRISING COPPER COMPOUNDS” (MEDCU TECHNOLOGIES LTD., priority 2018, published 2025).

“Also recorded” adds a separate entry of the source.

Test [1] relates to epidermis of human skin explants. As to the kind of experiment: MTT viability assay of the epidermis of skin explants. The note with it: 0.02 μM or 1 μM copper ions. It counts as cell-based. As for the experimental part:
To assess the cell viability throughout the culture period a 3-(4,5-dimethylthiazol-2-yl)-2,5-diphenyltetrazolium bromide (MTT) assay was performed at different days after wounding as follows:
To assess the cell viability throughout the culture period a 3-(4,5-dimethylthiazol-2-yl)-2,5-diphenyltetrazolium bromide (MTT) assay was performed 1, 3, 5, 10, 14, 21 and 27 days, following wounding, as follows: skin explants were incubated for 60 sec in pre-warmed PBS (56° C.). Then the epidermis layer of each replicate was separated from the dermis by grabbing the tissue edge with tweezers and peeling the epidermis off using a scalpel. Epidermal pieces were transferred to 96 well-plate, each well contains 150 μl MTT (Sigma, 0.5 mg/ml) and incubated for 1 hour at 37° C. and reduced light conditions. Then, the epidermis pieces were transferred to a new 96 well-plate containing 150 μl of isopropanol. Plates were placed for 5 min, 200 rpm in a plate shaker (MRC, Beijing, China). Following incubation, epidermis sections were removed, and absorbance was measured at 570 nm in Tecan plate reader (Tecan Group Ltd. Switzerland).
Background: Formazan colour is commonly taken as a measure of viable cells.

The subject of another test is TGF-β. As to the kind of experiment: TGF-β secretion into spent medium by ELISA. It counts as cell-based, human. As for the experimental part: (§1) During harvesting time points, the spent medium from all Test Groups was collected and centrifuged at 1500×g for 5 minutes to remove particulates. Media were kept at −80° C. until use. The secretion levels of IL-6, IL-8 and TGF-β were measured by commercial Enzyme-Linked Immunosorbent Assay (ELISA) kits according to manufacturer instructions (Biolegend, San Diego, CA). Briefly, plates were coated for 24 hours prior to assay with a specific anti-human capture antibody. At the day of the assay, coated plates were incubated with samples, followed by washes for unbound molecules. Then additional detection antibody was added and detected by Avidin-HRP solution. Finally, wells were incubated with a substrate solution, while absorbance was measured at 570 nm.
In order to further understand how addition of copper ions affected the skin explants, the amounts of Interleukin 6 (IL-6), Interleukin 8 (IL-8) and transforming growth factor beta (TGF-β) found in the medium of the various treated explants were determined. FIGS. 3a, 3c and 3e show the cytokine expression in burn-induced inflammation in human ex vivo skin and comparison between the IL-6, IL-8 and TGF-β secretion by the untreated skin explants (Naïve Controls) and the wounded skin explants (Burn Controls) following wounding. In these figures, the p values of a t-test between the cytokine expressions per a particular day following wounding are shown. Measurements were normalized to amount of cytokine secreted from normal skin and are presented as percent of Naïve control.
Reference is also made to FIGS. 3b, 3d and 3f showing the effect of addition of copper ions (0.02 μM or 1 μM) on secretion of IL-6, IL-8 and TGF-β, respectively, as compared to Naïve Controls and Burn Controls on Day 4 (treated with saline only) (FIGS. 3b and 3d) and on Day 6 (FIG. 3f) after wounding. In the graphs, the star sign “*” indicates the statistically significant difference as compared to the Naïve Controls, while the net sign “#” indicates the statistically significant difference as compared to the untreated (treated with saline only) Burn Controls.

The test system of test [2] is burned human skin explants. As to the kind of experiment: Histology of skin explants (H&E, Masson's trichrome). It counts as cell-based. On the procedure: At indicated harvesting time points, skin explants were fixed with 4% formaldehyde for 1 hour at room temperature. Then, the samples were washed twice with PBS and kept at 70% ethanol at 2-8° C. until use. Following dehydration in gradual increasing concentrations of ethanol and embedment, paraffin sections (8 μm) were prepared, pasted on slides and either stained with haematoxylin and eosin (H&E) or Masson trichrome stain, according to the manufacturer specification (Sigma-Aldrich) followed by mounting with DPX mountant (Sigma, Israel).
Examination of tissue formation was performed on day 12 and 27. Sections of Normal and Burned skin, treated or not with copper ions were stained with H&E and Masson's trichrome staining respectively. FIGS. 6a-6c show full length images of sections stained with H&E.

Test [3] deals with burn wounds on human skin explants (zone of stasis). In words: Burn wound area measurement in ex-vivo human skin explant burn model. It counts as cell-based. To be noted: for size of the wounds compared with wounds treated with saline only: 0.02 μM copper ions. On the procedure:
Human skin was obtained from healthy donors undergoing abdominal dermolipectomy after receiving informed consent. A 0.5 mm split-thickness skin graft was harvested using a dermatome (Aesculap AG & Co. KG, Tuttlingen, Germany) and was cut into 1 cm^2 pieces. Round burn wounds of with a diameter of […] were inflicted in the 0.7 cm^2 skin pieces by exposure to a soldering iron (95° C., 2 Sec). Triplicate pieces were kept intact as naïve controls. The injured and intact skin samples were placed dermis down on a stainless-steel grid and cultured at the air-liquid interface at 37° C. with 5% CO2 in Dulbecco's Modified Eagle's Medium (DMEM), 10% fetal calf serum (Biological Industries, Beit Ha′emek, Israel), and penicillin/streptomycin (100 IU/mL penicillin, […] streptomycin; Invitrogen). Culture medium was refreshed twice a week. The explants were cultured up to 27 days after wounding. Each individual experiment was performed with skin explants obtained from the same individual and the experiments were repeated at least three times. Reference is now made to FIGS. 1a and 1b schematically showing a side view and a top view, respectively, of this ex-vivo explant model. The skin explants are placed dermis down on a stainless-steel grid. Culture media is added to the bottom of the well, without reaching the epidermal layer, which is exposed to the air. […] From the stock solutions, solutions of 0.02 μM or 1 μM of copper ions were prepared in saline. […] Each control and treatment were performed in at least three replicate explants. Skin was obtained from 35-65-year-old healthy patients undergoing abdominoplasty surgery. The patient's under general anesthesia, went standard or circumferential abdominoplasty. After excision of the excess skin, the subcutaneous fat was removed using sterile technique. The defatted full-thickness skin was submerged in culture medium and transferred to the laboratory. The skin was cut into 8×8 mm squares by costume made apparatus. Round 0.8 mm diameter burn wounds were inflicted on the skin explants by exposure to a soldering iron (200° C., 10 Sec). The injured (burnt) and control intact skin samples were placed dermis down and kept at the air-liquid interface at 37° C. with 5% CO2 in Dulbecco's Modified Eagle's Medium supplemented with 100 IU/mL penicillin and […] streptomycin and 10% serum (Biological Industries, Beit Ha′emek, Israel). Culture medium was refreshed every 48 hours, i.e. immediately following injury and then again, every 48 hours, saline only or containing 0.02 μM or 1 μM copper ions were added onto the skin explant burn wounds. The explants were cultured up to 27 days after wounding. Pictures of burns were captured using Motic® Moticam 5+ camera at designated time points. Wound area was measured using ImageJ software suit. […]

The subject of the next test is IL-8. As to the kind of experiment: IL-8 secretion into spent medium by ELISA. It counts as cell-based, human. As for the experimental part: as §1
In order to further understand how addition of copper ions affected the skin explants, the amounts of Interleukin 6 (IL-6), Interleukin 8 (IL-8) and transforming growth factor beta (TGF-β) found in the medium of the various treated explants were determined. FIGS. 3a, 3c and 3e show the cytokine expression in burn-induced inflammation in human ex vivo skin and comparison between the IL-6, IL-8 and TGF-β secretion by the untreated skin explants (Naïve Controls) and the wounded skin explants (Burn Controls) following wounding. […]
For orientation: An ELISA detects its analyte on a solid surface through an enzyme-linked reagent.

Test [4] has as its system Ki67 stained cells in burned human skin explants. In words: Ki67 immunostaining of proliferating keratinocytes at the re-epithelisation area. It counts as cell-based. The note with it: FIG. 7. As for the experimental part: Immunostaining with Rabbit-anti Ki67 (Abcam, UK) was performed following rehydration, blocking in 2% BSA in PBS for 20 mins, for 2 hours, followed by exposure to Goat Anti-Rabbit IgG H&L (HRP) for one hour and detection by DAB substrate (Abcam, UK). Washes were then performed in 0.025% Tween/PBS. Counterstain was performed with haematoxylin (Sigma, Israel). Images were captured using Zeiss® PrimoVert microscope connected to Motic® Moticam 5+ camera.

A further test has as its system IL-6. In words: IL-6 secretion into spent medium by ELISA. It counts as cell-based, human. On the procedure: as §1, with “nm. In order to further understand how addition of copper ions affected the skin explants, the amounts of Interleukin 6 (IL-6), Interleukin 8 (IL-8) and transforming growth factor beta (TGF-β) found in the medium of the various treated explants were determined. FIGS. 3a, 3c and 3e show the cytokine expression in burn-induced inflammation in human ex vivo skin and comparison between the IL-6, IL-8 and TGF-β secretion by the untreated skin explants (Naïve Controls) and the wounded skin explants (Burn Controls) following wounding. […]” for “nm.”

With `[Cu+]` [copper ions], the “viability of burned skin explants compared with untreated pieces” value in test [1] (5 days after burn, differences not statistically significant) is “a trend of increased viability”; in test [1] (after 1 day), “remained similar to the untreated pieces”. Further, in the test with TGF-β (0.02 μM or 1 μM copper ions from both copper sources, Day 4 (FIG. 3f)), the “burn-induced increase of TGF-β compared with Burn Controls” value is “dramatically inhibited; also recorded: significantly attenuated or abolished; also recorded: significantly inhibited”. Further, the TGF-β level entry in the test with TGF-β (Day 6 and onwards) is listed as “returning to normal levels”. Besides, the “TGF-β secretion compared with Burn control samples” value with TGF-β (other examined days) is listed as “no statistically significant differences”. The “re-epithelisation (epithelia regeneration)” value in test [2] (0.02 μM and 1 μM copper ions, 12 days, H&E, vs Burn Control) is listed as “Beginning of epithelia regeneration (grey arrows) is seen; also recorded: newly formed epithelia”. In addition, the “detachment of the epidermal tissue from the dermis” value in test [2] (0.02 μM or 1 μM copper ions, day 12, H&E, FIGS. 6b and 6c) is reported as “less detached of the epidermal tissue from the dermis”. Also, the re-epithelisation result in test [2] (Day 27, Masson's trichrome, FIG. 4c, vs control samples) was “clear re-epithelisation occurred”. Further, the “collagen stain / amount of collagen fibers in the dermal layer” value in test [2] (Day 27, Masson's trichrome, FIG. 4c, vs saline-treated control) is recorded as “an increase in the amount of collagen fibers; also recorded: greater collagen stain”. Moreover, the “size of the wounds compared with wounds treated with saline only” value is given as “similarly smaller wounds” in test [3] (5 and 10 days following wounding); “statistically smaller than the wounds which are treated with saline only” in test [3] (three days following wounding). Moreover, in test [3] (end of the experiment), the “burn size at the end of the experiment” value is reported as “not massively improved”. The “increase in burn size that occurs after the initial damage” value in test [3] (topical application of the ions) is “prevented the increase in burn size”. In the test on IL-8 (0.02 μM or 1 μM copper ions from both copper sources, Day 4 (FIG. 3d)), the “burn-induced increase of IL-8 compared with Burn Controls” value is given as “significantly lower; also recorded: significantly attenuated or abolished”. Besides, the “amount of IL-8 secreted compared with Burn control samples” value with IL-8 (Day 1) was “did not differ significantly”. Moreover, the “amount of Ki67 stained cells compared to control” value in test [4] (0.02 μM copper ions) is on record as “significantly higher amount of Ki67 stained cells”. Moreover, the “newly proliferating cells stained with Ki67” value in test [4] (skin pieces fixed after 12 days) is on record as “significantly more common”. Moreover, in the test on IL-6 (Day 1 following the burn), the “levels of IL-6” value is reported as “dramatically elevated in the Burn Controls but not in the copper ion treated samples”. For the same molecule, in the test on IL-6 (after Day 4), the “IL-6 levels compared with Burn Control samples” value is given as “no significant differences in IL-6 levels”.
